Experiment [1] has as its system IL-2-induced JAK1/JAK3 signal pathway. Put plainly: IL-2-induced proliferation of KHYG-1 cells (JAK1/JAK3 signal). The format is cell-based, human. The following applies: Homo sapiens, read-out: Inhibition activity IC50 on IL-2-induced JAK1/JAK3 signal pathway. The source says:
The main physiological function of cytokine IL-2 is to stimulate and maintain the proliferation and differentiation of T cells. Generally, IL-2 dependent T cells cannot survive in in-vitro culture for a long time, but the addition of IL-2 can make them continue to proliferate. The signal pathway induced by IL-2 coupling with its receptor is mediated by JAK1/JAK3-STAT5, so the inhibitor of JAK1 and/or JAK3 can inhibit the proliferation of IL-2 dependent cells.
Human natural killer cell lymphoma cell line KHYG-1 was commercially available from Health Science Research Resources Bank (HSRRB), and relevant culture conditions referred to those from HSRRB.
The inhibition rate of the tested compound on IL-2-induced cell proliferation was calculated using Microsoft Excel.
After culture at 37° C. and 5% CO2 for 72 hours, alamarBlue™ Cell Viability Reagent was added to each well following the instructions.
The well in which neither compound nor cytokine was added was designated as 0% control well, and the fluorescence value in the wells in which the final concentration of compound was 0 was designated as 100% control. The inhibition activity […] of the tested compound on JAK1/JAK3 could be calculated from the inhibition rate of the tested compound on IL-2-induced cell proliferation at different doses.

Experiment [2] concerns EPO-induced JAK2 signal pathway. Put plainly: EPO-induced proliferation of UT-7 cells (JAK2 signal). The experiment is classed as cell-based, human. The following applies: Homo sapiens, UT7; UT-7 cell proliferation, EPO 10 ng/mL, 72 hours; read-out: Inhibition activity IC50 on EPO-induced JAK2 signal pathway. The protocol:
The cytokine EPO, i.e. erythropoietin, can promote the proliferation and division of erythroid progenitor cells, and the signal pathway induced by EPO coupling with its receptor is mediated by JAK2-STAT5.
Human promegakaryocytic leukemia cell line UT-7 was commercially available from Cell Resource Center, Institute of Basic Medicine, Chinese Academy of Medical Sciences. The culture medium was RPIM1640 containing 10% FBS, and EPO was added for a final concentration of 10 ng/mL.
The inhibition rate of the tested compound on EPO-induced cell proliferation was calculated using Microsoft Excel.
UT-7 cell line was inoculated in 96-well plate with flat bottom at 15000 cells per well, each well was added with 10 ng/mL of human recombinant EPO (Human EPO PEPROTECH 100-64-10UG), along with tested compound respectively for a final concentration of 0, 100, 1000 or 10000 nM. After culture at 37° C. and 5% CO2 for 72 hours, alamarBlue™ Cell Viability Reagent was added to each well following the instructions. After incubation at 37° C. for color reaction, the fluorescence value at Ex530/Em590 was detected using Tecan Spark™ 10M multimode microplate reader.
The well in which neither compound nor cytokine was added was designated as […], and the fluorescence value in the wells in which the final concentration of compound was 0 was designated as 100 control. The inhibition activity […] ofthe tested compound on JAK2 could be calculated from the inhibition rate ofthe tested compound on EPO-induced cell proliferation at different doses.

Where [3] appears, read: KHYG-1 cell proliferation, IL-2 10 ng/mL, 72 hours.

Read-outs that look alike come from different tables or passages of the source.

`CONC(=O)c1cnc(Nc2cccc(F)n2)cc1Nc1ccccc1S(=O)(=O)N(C)C` [Example 37, 4-((2-(N,N-dimethylaminosulfonyl)phenyl)amino)-6-((6-fluoropyridin-2-yl)amino)-N-methoxy nicotinamide]: the IC50 in experiment [1] (setting [3]) and in experiment [2] was above 10 µM each time.
For `CONC(=O)c1cnc(NC(=O)C2CC2)cc1Nc1ccccc1OC1COC1` [Example 39, 6-(cyclopropylcarboxamido)-N-methoxy-4-((2-(oxetan-3-yloxy)phenyl)amino)nicotinamide], the IC50 in experiment [1] (KHYG-1, 72 h) was above 10 µM; in experiment [2], above 10 µM.
In the case of `CONC(=O)c1cnc(Nc2cccc(F)n2)cc1Nc1ccccc1OC1COC1` [Example 40], the IC50 in experiment [1] (setting [3]) and in experiment [2] was above 10 µM throughout.
In the case of `CONC(=O)c1cnc(NC(=O)C2CC2)cc1Nc1cccc(-c2cnn(C)c2)c1C#N` [Example 48, 4-((2-cyano-3-(1-methyl-1H-pyrazol-4-yl)phenyl)amino)-6-(cyclopropylcarboxamido)-N-methoxy nicotinamide], the IC50 in experiment [1] (setting [3]) and in experiment [2] was above 10 µM throughout.
As to `CONC(=O)c1cnc(Nc2ccc(F)cn2)cc1Nc1cccc(-c2cnn(C)c2)c1C#N` [Example 49, 4-((2-cyano-3-(1-methyl-1H-pyrazol-4-yl)phenyl)amino)-6-((5-fluoropyridin-2-yl)amino)-N-methoxy nicotinamide], the IC50 in experiment [1] (setting [3]) and in experiment [2] was above 10 µM in each case.
`CONC(=O)c1cnc(NC(=O)C2CC2)cc1Nc1cccc(-c2ccn(C)n2)c1OCC(F)(F)F` [Example 50, 6-(cyclopropylcarboxamido)-N-methoxy-4-((3-(1-methyl-1H-pyrazol-3-yl)-2-(2,2,2-trifluoroethoxy)phenyl)amino)nicotinamide]: the IC50 in experiment [1] (setting [3]) and in experiment [2] was above 10 µM each time.
Regarding `CONC(=O)c1cnc(Nc2ccc(F)cn2)cc1Nc1cccc(-c2ccn(C)n2)c1OCC(F)(F)F` [Example 51, 6-((5-fluoropyridin-2-yl)amino)-N-methoxy-4-((3-(1-methyl-1H-pyrazol-3-yl)-2-(2,2,2-trifluoroethoxy)phenyl)amino)nicotinamide], the IC50 in experiment [1] (setting [3]) and in experiment [2] was above 10 µM in each case.
Consider `CONC(=O)c1nnc(NC(=O)C2CC2)cc1Nc1cccc(-c2ncn(C)n2)c1OC` [Example 52, 6-(cyclopropylcarboxamido)-N-methoxy-4-((2-methoxy-3-(1-methyl-1H-1,2,4-triazol-3-yl)phenyl)amino)pyridazine-3-carboxamide], for which the IC50 in experiment [1] (setting [3]) and in experiment [2] was above 10 µM throughout.
In the case of `CONC(=O)c1nnc(NC(=O)C2CC2)cc1Nc1cccc(-c2ccn(C)n2)c1OC` [Example 53, 6-(cyclopropylcarboxamido)-N-methoxy-4-((2-methoxy-3-(1-methyl-1H-pyrazol-3-yl)phenyl)amino)pyridazine-3-carboxamide], the IC50 in experiment [1] (setting [3]) and in experiment [2] was above 10 µM throughout.
In the case of `CONC(=O)c1cnc(NC(=O)C2CC2)cc1Nc1cccc(-c2cnn(C)c2)c1OC(F)F` [Example 54, 6-(cyclopropylcarboxamido)-4-((2-(difluoromethoxy)-3-(1-methyl-1H-pyrazol-4-yl)phenyl)amino)-N-methoxy nicotinamide], the IC50 in experiment [1] (setting [3]) and in experiment [2] was above 10 µM in each case.
As for `CONC(=O)c1cnc(NC(=O)C2CC2)cc1Nc1cccc(-c2noc(C)n2)c1OC` [Example 55, 6-(cyclopropylcarboxamido)-N-methoxy-4-((2-methoxy-3-(5-methyl-1,2,4-oxadiazol-3-yl)phenyl)amino)nicotinamide], the IC50 in experiment [1] (setting [3]) and in experiment [2] was above 10 µM in each case.
Turning to `CONC(=O)c1cnc(NC(=O)C2CC2)cc1Nc1cnccc1N(C)S(C)(=O)=O` [Example 56, 6-(cyclopropylcarboxamido)-N-methoxy-4-((4-(N-methylmethanesulfonamido)pyridin-3-yl)amino)nicotinamide], the IC50 in experiment [1] (setting [3]) and in experiment [2] was above 10 µM each time.
On to `CONC(=O)c1cnc(NC(=O)C2CC2)cc1Nc1cccc(C(N)=O)c1OC` [Example 57, 4-((3-carbamoyl-2-methoxyphenyl)amino)-6-(cyclopropylcarboxamido)-N-methoxy nicotinamide], for which the IC50 in experiment [1] (setting [3]) and in experiment [2] was above 10 µM throughout.
Turning to `CONC(=O)c1cnc(Nc2ccc(F)cn2)cc1Nc1cnccc1N(C)S(C)(=O)=O` [Example 58, 6-((5-fluoropyridin-2-yl)amino)-N-methoxy-4-((4-(N-methylmethanesulfonamido)pyridin-3-yl)amino)nicotinamide], the IC50 in experiment [1] (setting [3]) and in experiment [2] was above 10 µM throughout.
Consider `CONC(=O)c1cnc(NC(=O)C2CC2)cc1Nc1ccc(C)nc1N(C)S(C)(=O)=O` [Example 59, 6-(cyclopropylcarboxamido)-N-methoxy-4-((6-methyl-2-(N-methylmethanesulfonamido)pyridin-3-yl)amino)nicotinamide], for which the IC50 in experiment [1] (setting [3]) and in experiment [2] was above 10 µM in each case.
As for `CONC(=O)c1cnc(Nc2ccc(F)cc2)cc1Nc1ccc(C)nc1N(C)S(C)(=O)=O` [Example 64, 6-((4-fluorophenyl)amino)-N-methoxy-4-((6-methyl-2-(N-methylmethanesulfonamido)pyridin-3-yl)amino)nicotinamide], the IC50 in experiment [1] (setting [3]) and in experiment [2] was above 10 µM throughout.
With `CON(C)C(=O)c1cnc(Nc2cccc(F)n2)cc1Nc1ccccc1N(C)S(C)(=O)=O` [Example 65, 6-((6-fluoropyridin-2-yl)amino)-N-methoxy-N-methyl-4-((2-(N-methylmethanesulfonamido)phenyl)amino)nicotinamide], the IC50 in experiment [1] (KHYG-1, 72 h) was above 10 µM; in experiment [2], above 10 µM.
As to `CCONC(=O)c1cnc(Nc2nc(C)cc(C)n2)cc1Nc1ccc(C)cc1N(C)S(=O)(=O)C1CC1` [Example 66, 6-((4,6-dimethylpyrimidin-2-yl)amino)-N-ethoxy-4-((4-methyl-2-(N-methylcyclopropylsulfonamido)phenyl)amino)nicotinamide], the IC50 in experiment [1] (setting [3]) and in experiment [2] was above 10 µM throughout.
Regarding `CONC(=O)c1c(Nc2ccc(C3CC3)cc2N(C)S(C)(=O)=O)cc(Nc2cccc(F)n2)nc1C` [Example 67, 4-((4-cyclopropyl-2-(N-methylmethanesulfonamido)phenyl)amino)-6-((6-fluoropyridin-2-yl)amino)-N-methoxy-2-methyl nicotinamide], the IC50 in experiment [1] (setting [3]) and in experiment [2] was above 10 µM throughout.
As to `CCNC(=O)c1cnc(NC(=O)C2CC2)cc1Nc1cccc(-c2cnn(C)c2)c1OC` [Example 71, 6-(cyclopropylcarboxamido)-N-ethyl-4-((2-methoxy-3-(1-methyl-1H-pyrazol-4-yl)phenyl)amino)nicotinamide], the IC50 in experiment [1] (setting [3]) and in experiment [2] was above 10 µM throughout.
As for `CONC(=O)c1cnc(Nc2ccc(S(C)(=O)=O)cc2)cc1Nc1cccc(-c2cnn(C)c2)c1OC` [Example 72, N-methoxy-4-((2-methoxy-3-(1-methyl-1H-pyrazol-4-yl)phenyl)amino)-6-((4-(methanesulfonyl)phenyl)amino)nicotinamide], the IC50 in experiment [1] (setting [3]) and in experiment [2] was above 10 µM each time.
`CONC(=O)c1cnc(NC(=O)C2CC2)cc1Nc1ccccc1P(C)(C)=O` [Example 73, 6-(cyclopropylcarboxamido)-4-((2-(dimethylphosphoryl)phenyl)amino)-N-methoxy nicotinamide]: the IC50 in experiment [1] (setting [3]) and in experiment [2] was above 10 µM in each case.
As for `CONC(=O)c1cnc(Nc2cccc(F)n2)cc1Nc1ccccc1P(C)(C)=O` [Example 74, 4-((2-(dimethylphosphoryl)phenyl)amino)-6-((6-fluoropyridin-2-yl)amino)-N-methoxy nicotinamide], the IC50 in experiment [1] (setting [3]) and in experiment [2] was above 10 µM in each case.
Consider `CONC(=O)c1cnc(NC(=O)C2CC2)cc1Nc1cccc(Cl)c1N(C)S(C)(=O)=O` [Example 75, 4-((3-chloro-2-(N-methylmethanesulfonamido)phenyl)amino)-6-(cyclopropylcarboxamido)-N-methoxy nicotinamide], for which the IC50 in experiment [1] (setting [3]) and in experiment [2] was above 10 µM throughout.

Values taken from patent publication US20240101548A1, “HYDROXAMATE COMPOUND, PREPARATION METHOD THEREFOR AND APPLICATION THEREOF” (SHENZHEN CHIPSCREEN BIOSCIENCES CO., LTD., priority 2020, published 2024).
